Cytotoxicity data for 102 compounds are collected here from ChEMBL document CHEMBL3507680, “University of Dundee, Gates Library screen for HepG2 cell viability”.

The nature of this data set: Human HepG2 cell viability assay in 384 well format. The data set is classed as toxicity, cell-based. Also noted: dose 125 nL, time 70.5 hour; cytotoxicity at 70.5 h: concentration not given beside the values. Particulars: HepG2 cells, read-out: Inhibition.

Molecules are shown by their SMILES.

On to `CCC(CNC(=O)CNC(C)=O)Oc1cccc(F)c1` (configuration not stated), for which the cytotoxicity at 70.5 h is -9.82%. The same measure for `Cc1nc(CC2CCCN(Cc3nc(N)c4ccccc4n3)C2)no1` (configuration not stated): -7.12%; for `Cc1ncc(S(=O)(=O)N(CC(C)C)c2cccc(O)c2)s1`: -1.45%; for `CC(C)n1cc(CN2CCCN(C(=O)C3(C)CCOCC3)CC2)cn1`: -11.5%. Turning to `COc1ccccc1CN(Cc1cccs1)S(=O)(=O)N(C)C(C)C`, the cytotoxicity at 70.5 h was -2.73%.

Consider `CC(C)N(C)S(=O)(=O)N(Cc1cccs1)Cc1cccs1`, for which the cytotoxicity at 70.5 h is -12.9%.

As to `Cc1nc(C(=O)N2CCCC(c3nc(C(C)C)cs3)C2)c[nH]1` (configuration not stated), the cytotoxicity at 70.5 h stood at 12.6%. Regarding `CCN(CC)CC(=O)N1CCN(CCc2ccncc2)CC1`, the cytotoxicity at 70.5 h is -9.33%. The same measure for `COC(=O)C1CN(Cc2ccc(-c3ccncc3)cc2F)C[C@@H](C)O1` (some centres not stated): 11.8%; for `COc1cccc(CNC(=O)CCOc2ccccc2C)c1`: -10.3%; for `COC(=O)c1ccc(Cl)c(S(=O)(=O)Nc2ccc(F)c(C(N)=O)c2)c1`: -14.5%.

For `O=C(CC1CCN(c2ncnc3ccccc23)CC1)N1CCCC1`, the cytotoxicity at 70.5 h was -6.95%. Turning to `CSCc1ccc(CNCCCN2CCOCC2)o1`, the cytotoxicity at 70.5 h was -12.3%. The same measure for `Cc1ccccc1OCCCC(=O)NCc1ccnc(O)c1`: -11.5%; for `CC(NC(=O)Nc1cccnc1N1CCOCC1)c1ccncc1` (configuration not stated): 6.43%; for `CC(C)C(=O)NS(=O)(=O)CCc1ccccc1`: -12.8%. For `Cc1nc(Cn2cc(C#N)c(=O)c3ccccc32)no1` the value was -5.75%; for `Cc1noc(C)c1CN1CCCC1C(=O)OCc1ccccc1` (configuration not stated), -10.7%. The same measure for `Cc1oc(C)c(C(=O)NS(=O)(=O)c2ccc3c(c2)OCCO3)c1Br`: -17.9%; for `CC(=O)N1CCCN(C(C)C(=O)Nc2ccnn2C(C)C)CC1` (configuration not stated): -3.26%. Regarding `COCCN(CCC#N)S(=O)(=O)c1cc(F)ccc1F`, the cytotoxicity at 70.5 h is -2.55%. The same measure for `NCC1(c2cccc(C(F)(F)F)c2)CCC1`: -2.75%; for `COc1cccc(CN(C)Cc2cc(C#N)ccc2F)c1OC`: -9.77%; for `CCCn1nc2c(cc1=O)CN(Cc1cc(C)no1)CC2`: -8.28%. For `CNS(=O)(=O)c1cccc(C(C)NCc2ccc(C)c(C)c2)c1` (configuration not stated) the value was 19.3%; for `NC(=O)C1CCN(c2cncc(-n3cccn3)n2)CC1`, 6.36%. For `N#CCCN(C(=O)CN1CCCC1c1ccccc1Cl)c1ccccc1` (configuration not stated) the value was -11.7%; for `COc1ccc(NC(=O)c2ccoc2C)c(N2CCN(C(C)=O)CC2)n1`, -14.1%. Consider `CC(=O)c1cccc(NC(=O)CN2CCCCC2C(=O)N2CCCC2)c1` (configuration not stated), for which the cytotoxicity at 70.5 h is -13.4%. For `CS(=O)(=O)c1ccc(NC(=O)CSc2ccc3c(c2)CCC3)cn1` the value was -14.4%; for `CNC(=O)c1cnc(/C=C/c2ccc(O)c(OC)c2)s1`, -14.3%.

On to `COc1ccc(NC(=O)CN2CCCCC2C2OCCO2)cc1` (configuration not stated), for which the cytotoxicity at 70.5 h was -4.96%. For `CCS(=O)(=O)N(C)C1CCN(C(=O)c2cc(C)cc(C)c2)CC1` the value was -14.2%; for `CNS(=O)(=O)c1cccc(C(C)NCc2cccc(C)c2C)c1` (configuration not stated), -12.2%; for `Cc1ccc(C(CNCc2cccnc2)N2CCOCC2)s1` (configuration not stated), -10.2%.

Turning to `Cc1cc(C)n(-c2cncc(N3CCC(C(=O)N(C)C)CC3)n2)n1`, the cytotoxicity at 70.5 h stood at 11.2%.

With `c1ccc(C2CCCN(c3cncc(-n4cccn4)n3)CC2)cc1` (configuration not stated), the cytotoxicity at 70.5 h was -9.13%. For `CN1CCN(C(=O)C2SCCc3sccc32)CC1` (configuration not stated) the value was -6.9%; for `COCc1nc2cc(NCc3cc[nH]n3)ccc2o1`, -2.44%; for `CNS(=O)(=O)c1cccc(C(C)NCc2ccc(F)c(F)c2)c1` (configuration not stated), -6.64%. For `CC(=O)Nc1nc(CN(C)CC2CCCN2c2cccnn2)cs1` (configuration not stated) the value was -12.7%. The same measure for `FC(F)(F)C1CCCn2c(CNCc3cccs3)nnc21` (configuration not stated): -7.88%. For the compound `Cn1cccc1CNCc1nnc2n1CCCC2C(F)(F)F` (configuration not stated), the cytotoxicity at 70.5 h was -5.37%. For `CN(CC(=O)N1CCCC1c1noc(C2CC2)n1)S(C)(=O)=O` (configuration not stated) the value was -12.3%; for `O=C(CCn1cccn1)NCC(c1cccs1)N1CCOCC1` (configuration not stated), 25.6%. Regarding `CCOc1ncccc1CNC(=O)N1CCCC1c1cccs1` (configuration not stated), the cytotoxicity at 70.5 h is -11.7%.

For the compound `COc1cc(CNC(=O)N2CCCC2c2cc(C)no2)ccn1` (configuration not stated), the cytotoxicity at 70.5 h is -15.1%. For `CNC(=O)NC(=O)C(C)N1CCC(c2c[nH]c3ccc(OC)cc23)CC1` (configuration not stated) the value was -2.98%.

With `CCSCCC(=O)Nc1ncn(Cc2ccccc2)n1`, the cytotoxicity at 70.5 h is -14.4%.

Regarding `CC(SCC(=O)NC(N)=O)c1ccccc1F` (configuration not stated), the cytotoxicity at 70.5 h was -8.18%. Take `CN(C)C(=O)Cn1cc(C#N)c(=O)c2cc(Br)ccc21`: the cytotoxicity at 70.5 h stood at 1.29%.

In the case of `CC(C)CNC(=O)c1cc(Br)c2c(c1)OCCO2`, the cytotoxicity at 70.5 h was -7.77%. As to `CCc1nc2n(n1)CCCC2Nc1nc(C2CC2)ns1` (configuration not stated), the cytotoxicity at 70.5 h is -8.97%. For `CCCS(=O)(=O)CC(=O)N1CCCC1c1noc(C2CC2)n1` (configuration not stated) the value was -17.8%; for `O=C(Cn1cccn1)NCC(c1cccs1)N1CCCC1` (configuration not stated), -11.9%; for `CC(NC(=O)CCn1cccn1)c1cccs1` (configuration not stated), -0.167%.

Take `Cc1ccc(N2CCCC(N(C)Cc3nc(C)c(C)o3)C2)nn1` (configuration not stated): the cytotoxicity at 70.5 h was -11.5%. For `Cc1ccc(N2CCCC(N(C)Cc3noc(C4CC4)n3)C2)nn1` (configuration not stated) the value was -9.69%; for `CSC(C)(C)CNC(=O)NC1CCN(CC=C(C)C)CC1`, 31.2%; for `CSC(C)(C)CNC(=O)NC1CCN(CC2CC2)C1` (configuration not stated), 15.5%. The same measure for `COc1ccc(Br)c(C(=O)NCC2CC2)c1`: 18.2%. The same measure for `O=C1c2ccccc2C(=O)N1CC(O)Cn1nc(-c2cccs2)oc1=O` (configuration not stated): 5.68%; for `O=c1oc(-c2cccs2)nn1CC(O)c1ccccc1F` (configuration not stated): -4.66%; for `CCCS(=O)(=O)N1CCC(NC(=O)c2ccc(C)s2)CC1`: -8.95%. Take `CC(NC(=O)NCCCn1cccn1)c1ccccn1` (configuration not stated): the cytotoxicity at 70.5 h is -5.57%.

As for `CCc1ccc(C(=O)Nc2cccc(CN3CCCC3C(N)=O)c2)cc1` (configuration not stated), the cytotoxicity at 70.5 h worked out at 0.802%.

Consider `CC(NC(=O)NCCCn1cccn1)c1ccncc1` (configuration not stated), for which the cytotoxicity at 70.5 h was -10.8%. For `O=C(CCN1CCCC1c1cccc2c1OCCO2)N1CCCCC1` (configuration not stated) the value was -6.86%; for `NC(=O)NC(=O)CCN1CCCC1c1cccc2c1OCCO2` (configuration not stated), -11.6%; for `CCc1nc(CCNC(=O)Nc2cc(C(N)=O)ccc2OC)cs1`, -12.4%. `CCNC(=O)CCN1CCCC1c1cccc2c1OCCO2` (configuration not stated): the cytotoxicity at 70.5 h is -7.15%. For `Cc1cccc(NC(=O)[C@@H]2CCCN2Cc2nc3ccccc3o2)n1` the value was 4.7%; for `COc1ccc(-n2cnnc2SCC(=O)NC(C)C)cn1`, -3.19%. The same measure for `Cc1cc(S(=O)(=O)N2CCCc3cc(Cl)ccc32)sc1C(=O)O`: 2.62%; for `COCC(=O)NC1CCN(c2cccc(OC(F)(F)F)c2)C1=O` (configuration not stated): -7.95%; for `CCC(=O)NC1CCN(c2cccc(OC(F)(F)F)c2)C1=O` (configuration not stated): -2.63%.

Turning to `Cc1cccc(NC(=O)[C@@H]2CCCN2Cc2ccc(C#N)cc2F)n1`, the cytotoxicity at 70.5 h was -0.253%. For `CC(=O)N1CCC(C(=O)NC(C)c2cccc(OC(F)F)c2)CC1` (configuration not stated) the value was 1.57%; for `Cc1cc(C(=O)N2CCN(CC(O)Cn3cccn3)CC2)c(C)o1` (configuration not stated), 6.38%. The same measure for `Cc1ccc(NC(=O)C2CCc3ccccc3N2)cc1` (configuration not stated): 15.2%; for `CC(=O)NCCC(=O)NCC1(c2c(F)cccc2F)CCCC1`: -3.9%.

Take `COC(=O)c1ccc(/C=C/c2ncc(C(=O)O)s2)cc1`: the cytotoxicity at 70.5 h is 3.38%. The same measure for `COc1cc(/C=C/c2ncc(C(=O)O)s2)cc(OC)c1`: 14.7%.

In the case of `CCS(=O)(=O)CC(=O)NCC1(c2c(F)cccc2F)CCCC1`, the cytotoxicity at 70.5 h came out at 18%. Consider `CC(C)c1nc2n(n1)CC(NCC(=O)NCCC1=CCCCC1)CC2` (configuration not stated), for which the cytotoxicity at 70.5 h was -0.816%. For `Cc1cc(=O)n(C)cc1NC(=O)NCc1cccc(F)c1` the value was -2.73%; for `CCC(CNC(=O)c1nc(=O)[nH][nH]1)Oc1cccc(F)c1` (configuration not stated), 0.426%; for `CCn1c(CNC(=O)Nc2nc(C)c(C)o2)nc2ccccc21`, 14.3%. With `CCC(CNC(=O)c1nc(=O)[nH][nH]1)Oc1cccc(C(F)(F)F)c1` (configuration not stated), the cytotoxicity at 70.5 h is -3.8%.

Regarding `Cc1cc(=O)n(C)cc1NC(=O)Cc1cccc(Cl)c1`, the cytotoxicity at 70.5 h is -0.253%. On to `Cc1cc(=O)n(C)cc1NC(=O)Cc1cc(F)ccc1F`, for which the cytotoxicity at 70.5 h turned out to be 2.11%.

As to `Cn1cc(CNc2ccc(F)c(N3CCCS3(=O)=O)c2)cn1`, the cytotoxicity at 70.5 h is -1.61%. `O=C(CCCC1CCCC1)NS(=O)(=O)CC1CC1`: the cytotoxicity at 70.5 h is -2.25%.

Consider `Cc1nnc(C(C)N(C)Cc2c(C)nn(-c3ccccc3)c2C)o1` (configuration not stated), for which the cytotoxicity at 70.5 h is -1.32%.

Consider `CC(NCC1CCN(CCO)CC1)c1ccc(OC(F)(F)F)cc1` (configuration not stated), for which the cytotoxicity at 70.5 h is -2.01%. The same measure for `O=C(c1cccc(Cl)c1Cl)N1CCN(CC(O)Cn2cccn2)CC1` (configuration not stated): -2.95%. The same measure for `CN(Cc1ccccc1NCc1ncc[nH]1)C(=O)c1cccs1`: 14%. The same measure for `CN(CCN1CCOCC1)C(=O)C1(c2ccc(F)cc2F)CCC1`: -2.7%.

`CC(NCC1CCN(CCO)CC1)c1cccnc1` (configuration not stated): the cytotoxicity at 70.5 h was 28.1%.

In the case of `Cc1cc(-n2cncn2)ccc1C(=O)N(CC(F)(F)F)C(C)C`, the cytotoxicity at 70.5 h is -7.81%. Take `Cc1ccsc1CN(C)Cn1nccc1-c1cccnc1`: the cytotoxicity at 70.5 h was -2.36%. For `CC1(C)CCC(C(=O)N2CCCO2)c2ccccc21` (configuration not stated) the value was 9.21%.
